Test results as given in US20120121540A1 (priority 2007, published 2012).

Assay: HCV replicon assay (luciferase reporter, ET cell line)
Assay type: cell-based
Settings: Hepatitis C virus, HCV replicon luciferase activity in ET cells
Experimental: A cell line, ET (Huh-lucubineo-ET) is used for screening of compounds for inhibiting HCV RNA dependent RNA polymerase. The ET cell line is stably transfected with RNA transcripts harboring a I389 luc-ubi-neo/NS3-3′/ET; replicon with firefly luciferase-ubiquitin-neomycin phosphotransferase fusion protein and EMCV-IRES driven NS3-5B polyprotein containing the cell culture adaptive mutations (E1202G; T1280I; K1846T) (Krieger at al, 2001 and unpublished). The ET cells are grown in DMEM (Dulbeco's Modified Eagle's Medium), supplemented with 10% fetal calf serum, 2 mM Glutamine, Penicillin (100 IU/mL)/Streptomycin (100 μg/mL), 1× nonessential amino acids, and 250 μg/mL G418 (“Geneticin”). They are all available through Life Technologies (Bethesda, Md.). The cells are plated at 0.5−1.0×10^4 cells/well in the 96 well plates and incubated for 24 hrs before adding test compound. The compounds are added to the cells to achieve a final concentration of 0.1 nM to 50 μm and a final DMSO (dimethylsulfoxide) concentration of 0.5%. Luciferase activity is measured 48-72 hours later by adding a lysis buffer and the substrate (Catalog number Glo-lysis buffer E2661 and Bright-Glo luciferase system E2620 Promega, Madison, Wis.). Cells should not be too confluent during the assay. Percent inhibition of replication data is plotted relative to no compound control. Under the same condition, cytotoxicity of the compounds are determined using cell proliferation reagent, WST-1 (Roche, Germany). The compounds showing antiviral activities, but no significant cytotoxicities are chosen to determine EC50 and TC50. For these determinations, a 10 point, 2-fold serial dilution for each compound was used, which spans a concentration range of 1000 fold. EC50 and similarly TC50 values were calculated by fitting % inhibition at each concentration to the following equation:
% inhibition=100%/[(EC50/[I])^b+1]
where b is Hill's coefficient.
% inhibition values at a specific concentration, […] for example, can also be derived from the equation above.

Row | Structure (SMILES) | inhibition at 10 µM [%]
1 | COC(=O)[C@@H]1CN(C(=O)c2nc3c(C(F)(F)F)cc(-c4ccoc4)cn3c2Cl)C[C@H]1c1ccccc1 (stereo in doubt) [Compound 221, 1-(3-Chloro-6-furan-3-yl-8-trifluoromethyl-imidazo[1,2-a]pyridine-2-carbonyl)-4-phenyl-pyrrolidine-3-carboxylic Acid Methyl Ester] | 73.6
2 | O=C(NCc1cccs1)c1nc2c(C(F)(F)F)cc(-c3ccccc3)cn2c1Br [Compound 139, 3-Bromo-6-phenyl-8-trifluoromethyl-imidazo[1,2-a]pyridine-2-carboxylic Acid (thiophen-2-ylmethyl)-amide] | 97.9
3 | CN(C)CCOc1ccccc1CNC(=O)c1nc2c(C(F)(F)F)cc(-c3ccco3)cn2c1Cl [Compound 215, 3-Chloro-6-furan-2-yl-8-trifluoromethyl-imidazo[1,2-a]pyridine-2-carboxylic Acid 2-(2-dimethylamino-ethoxy)-benzylamide] | 49
4 | COc1ccc(CNC(=O)c2nc3c(C(F)(F)F)cc(-c4ccco4)cn3c2Cl)cc1 [Compound 192, 3-Chloro-6-furan-2-yl-8-trifluoromethyl-imidazo[1,2-a]pyridine-2-carboxylic acid 4-methoxy-benzylamide] | 73.9
5 | O=C(NCc1cccs1)c1cc2cc(-c3ccccc3)cc(I)n2n1 [Compound 102, 7-Iodo-5-phenyl-pyrazolo[1,5-a]pyridine-2-carboxylic Acid (thiophen-2-ylmethyl)-amide] | 81
6 | O=C(c1nc2c(C(F)(F)F)cc(-c3ccoc3)cn2c1Cl)N1CCN(c2ccc(C(F)(F)F)cc2)CC1 [Compound 539] | 78.9
7 | O=C(NCc1cccs1)c1cn2cc(-c3cccc(F)c3)cc(C(F)(F)F)c2n1 [Compound 314, 6-(3-Fluoro-phenyl)-8-trifluoromethyl-imidazo[1,2-a]pyridine-2-carboxylic Acid (thiophen-2-ylmethyl)-amide] | 49.6
8 | O=C(c1nc2c(C(F)(F)F)cc(-c3ccoc3)cn2c1Cl)N1CC=C(c2ccccc2)C1 [Compound 259, (3-chloro-6-furan-3-yl-8-trifluoromethyl-imidazo[1,2-a]pyridin-2-yl)-(3-phenyl-2,5-dihydro-pyrrol-1-yl)-methanone] | 99.4
9 | Cn1cc(-c2cc(C(F)(F)F)c3nc(C(=O)NCc4cccs4)c(Cl)n3c2)cn1 [Compound 280, 3-Chloro-6-(1-methyl-1H-pyrazol-4-yl)-8-trifluoromethyl-imidazo[1,2-a]pyridine-2-carboxylic Acid (thiophen-2-ylmethyl)-amide] | 83.9
10 | COc1cccc(CNC(=O)c2nc3c(C(F)(F)F)cc(-c4ccco4)cn3c2Cl)c1 [Compound 191, 3-Chloro-6-furan-2-yl-8-trifluoromethyl-imidazo[1,2-a]pyridine-2-carboxylic acid 3-methoxy-benzylamide] | 2.3
11 | O=C(c1nc2c(C(F)(F)F)cc(-c3cn[nH]c3)cn2c1Br)N1CC=C(c2ccc(F)cc2)C1 [Compound 438, [3-Bromo-6-(1H-pyrazol-4-yl)-8-trifluoromethyl-imidazo[1,2-a]pyridin-2-yl]-[3-(4-fluoro-phenyl)-2,5-dihydro-pyrrol-1-yl]-methanone] | 97.8
12 | O=C(c1nc2c(C(F)(F)F)cc(-c3ccoc3)cn2c1Cl)N1CC(c2ccc(C(F)(F)F)cc2)C1 [Compound 488] | 60.2
13 | O=C(c1nc2c(C(F)(F)F)cc(-c3ccco3)cn2c1Cl)N1CCCC1c1ccc(F)cc1 (centres unmarked) [Compound 329, (3-Chloro-6-furan-2-yl-8-trifluoromethyl-imidazo[1,2-a]pyridin-2-yl)-[2-(4-fluoro-phenyl)-pyrrolidin-1-yl]-methanone] | 97.6
14 | N#Cc1cc(-c2cn[nH]c2)cn2c(Cl)c(C(=O)NCc3cccs3)nc12 [Compound 379, 3-Chloro-8-cyano-6-(1H-pyrazol-4-yl)-imidazo[1,2-a]pyridine-2-carboxylic Acid (thiophen-2-ylmethyl)-amide] | 80.8
15 | O=C(NCc1ccccc1F)c1cc2cc(-c3ccccc3)cc(I)n2n1 [Compound 128, 7-Iodo-5-phenyl-pyrazolo[1,5-a]pyridine-2-carboxylic Acid 2-fluoro-benzylamide] | 65.2
16 | O=C(NCc1cccc(OC(F)(F)F)c1)c1nc2c(C(F)(F)F)cc(-c3ccco3)cn2c1Cl [Compound 203, 3-Chloro-6-furan-2-yl-8-trifluoromethyl-imidazo[1,2-a]pyridine-2-carboxylic acid 3-trifluoromethoxy-benzylamide] | 47.5
17 | COc1ccc(C2CCN(C(=O)c3nc4c(C(F)(F)F)cc(-c5ccoc5)cn4c3Cl)C2)cc1 (centres unmarked) [Compound 335, (3-Chloro-6-furan-3-yl-8-trifluoromethyl-imidazo[1,2-a]pyridin-2-yl)-[3-(4-methoxy-phenyl)-pyrrolidin-1-yl]-methanone] | 76.3
18 | O=C(Cc1nc2c(C(F)(F)F)cc(-c3ccoc3)cn2c1Cl)NCc1cccs1 [Compound 603, 2-[3-Chloro-6-(furan-3-yl)-8-(trifluoromethyl)imidazo[1,2-a]pyridin-2-yl]-N-(thiophen-2-ylmethyl)acetamide] | 65.8
19 | O=C(NCc1cccs1)c1nc2c(C(F)(F)F)cc(-c3cccs3)cn2c1Cl [Compound 175, 3-Chloro-6-thiophen-2-yl-8-trifluoromethyl-imidazo[1,2-a]pyridine-2-carboxylic acid (thiophen-2-ylmethyl)-amide] | 99.4
20 | N#Cc1cccc(C2CCN(C(=O)c3nc4c(C(F)(F)F)cc(-c5ccoc5)cn4c3Cl)C2)c1 (centres unmarked) [Compound 450, 3-(1-(3-Chloro-6-furan-3-yl-8-trifluoromethyl-imidazo[1,2-a]pyridine-2-carbonyl)-pyrrolidin-3-yl)-benzonitrile] | 82.5
21 | O=C(c1nc2c(C(F)(F)F)cc(-c3c[nH]c4ccccc34)cn2c1Cl)N1CCC(c2cccc(F)c2)C1 (centres unmarked) [Compound 525, [3-Chloro-6-(1H-indol-3-yl)-8-trifluoromethyl-imidazo[1,2-a]pyridin-2-yl]-[3-(3-fluoro-phenyl)-pyrrolidin-1-yl]methanone] | 23.4
22 | O=C(NCc1cccs1)c1nc2c(C(F)(F)F)cc(-c3cccc(F)c3)cn2c1C1=CCCCC1 [Compound 303, 3-Cyclohex-1-enyl-6-(3-fluoro-phenyl)-8-trifluoromethyl-imidazo[1,2-a]pyridine-2-carboxylic Acid (thiophen-2-ylmethyl)-amide] | 39.7
23 | O=C(c1nc2c(C(F)(F)F)cc(-c3cccc(F)c3)cn2c1Br)N1CCC(c2ccccc2)C1 (centres unmarked) [Compound 368, [3-Bromo-6-(3-fluoro-phenyl)-8-trifluoromethyl-imidazo[1,2-a]pyridin-2-yl]-(3-phenyl-pyrrolidin-1-yl)-methanone] | 92.2
24 | O=C(c1nc2c(C(F)(F)F)cc(-c3ccoc3)cn2c1Cl)N1CCC(n2cc(-c3ccccc3)[nH]c2=O)CC1 [Compound 553, 1-[1-(3-Chloro-6-furan-3-yl-8-trifluoromethyl-imidazo[1,2-a]pyridine-2-carbonyl)-piperidin-4-yl]-4-phenyl-1,3-dihydro-imidazol-2-one] | 43.6
25 | O=C(NCc1cccs1)c1nc2c(C(F)(F)F)cc(-c3ccccc3F)cn2c1Cl [Compound 197, 3-Chloro-6-(2-fluoro-phenyl)-8-trifluoromethyl-imidazo[1,2-a]pyridine-2-carboxylic acid (thiophen-2-ylmethyl)-amide] | 90.6
26 | O=C(c1nc2c(C(F)(F)F)cc(-c3ccoc3)cn2c1Cl)N1CC(NS(=O)(=O)c2ccccc2)C1 [Compound 492, N-[1-(3-Chloro-6-furan-3-yl-8-trifluoromethyl-imidazo[1,2-a]pyridine-2-carbonyl)-azetidin-3-yl]-benzenesulfonamide] | 97.4
27 | O=C(c1nc2c(C(F)(F)F)cc(-c3ccoc3)cn2c1Cl)N1CC=C(c2ccccc2CO)CC1 [Compound 561, (3-Chloro-6-furan-3-yl-8-trifluoromethyl-imidazo[1,2-a]pyridin-2-yl)-[4-(2-hydroxymethyl-phenyl)-3,6-dihydro-2H-pyridin-1-yl)-methanone] | 89.1
28 | CC(C)(C)OC(=O)N[C@@H]1CCN(C(=O)c2nc3c(C(F)(F)F)cc(-c4ccoc4)cn3c2Cl)C1 [Compound 478, [1-(3-Chloro-6-furan-3-yl-8-trifluoromethyl-imidazo[1,2-a]pyridine-2-carbonyl)-pyrrolidin-3-yl]-carbamic acid tert-butyl ester] | 4.9
29 | CCCCCc1nc(-c2cc(-c3ccoc3)cn3c(Cl)c(C(=O)NCc4cccs4)nc23)no1 [Compound 375, 3-Chloro-6-furan-3-yl-8-(5-pentyl-[1,2,4]oxadiazol-3-yl)-imidazo[1,2-a]pyridine-2-carboxylic Acid (thiophen-2-ylmethyl)-amide] | 35.4
